# Tests used:
# [1] = tested on: isolated rat corpora cavernosa; assay: Nitroprusside-induced relaxation in isolated rat corpora cavernosa; design: species or system SD rat; conditions: in the presence of the test compound (5×10^−8 M); strip constricted by 0.1 mM norepinephrine; control preparation 20%
# Method: (a) Effect of Test Compound on Nitroprusside or Ach-induced Relaxation in Isolated Rat Corpora Cavernosa.
# Male SD rats were anesthetized with sodium pentobarbital 50 mg/kg intraperitoneally, and the corpora cavernosa was excised. The tunica albuginea was dissected according to the methods described by Italiano et al. (Pharmacological Research, 30, No. 4, 1994) and used for in vitro pharmacological study. The erectile tissue strip was placed in a 25 ml organ bath containing Krebs-Ringer solution. The bath was maintained at 37° C. and bubbled with 95% O2 and 5% CO2. The strip was stretched with a resting force of 0.25 g, and isometric contraction were recorded via force development transducer on a recorder.
# The strip was equilibrated in the Krebs-Ringer solution for about 60 minutes, and preconstructed by 0.1 mM norepinephrine to ascertain the responsibility of each preparation. The strip was washed several times, and then constricted by 0.1 mM norepinephrine. After getting stable constrictile response to norepinephrine, the first dose-response curve for sodium nitroprusside or Ach(acetylcholine) was obtained. After washing a few times for 60 minutes, the strip was constricted by norepinephrine again, and the second dose-response curve for sodium nitroprusside or Ach was obtained. […]
# [2] = tested on: rabbit corpora cavernosa; assay: Relaxation elicited by electrical field stimulation in rabbit corpora cavernosa; conditions: at 5×10^−8 M
# Method: (b) Effect of test compounds on the relaxation elicited by electrical field stimulation in rabbit corpora cavernosa.
# The rabbit erectile tissue strip prepared according to the method described by Italiano et al. (Pharmacological Research, 30, No 4, 1994) was placed 25 ml organ bath containing Krebs-Ringer solution. The bath was maintained at 37° C. and bubbled with 95% O2 and 5% CO2. The solution also contained atropine (1 μM) and guanethidine (50 μM). The erectile tissue strip was stretched with a resting force of 0.25 g, and isometric contraction were recorded via force development transducer on a recorder. The bipolar platinum electrode connected to the electric stimulator was placed around the strip.
# The strip was equilibrated in the Krebs-Ringer solution for about 60 minutes and preconstricted by 0.1 mM norepinephrine to ascertain the responsibility of each preparation. The strip was washed several times, and then constricted by 0.1 mM norepinephrine. After getting stable contractile response to norepinephrine, the first electrical field stimulation (1 to 30 Hz, 20V, 0.5 msec duration, 90 sec interval) was delivered. 30 minutes after adding the tested compound, the second electrical field stimulation was delivered. […]
# [3] = tested on: SD rat; type: in vivo; conditions: 32 mg/kg once a day for 14 consecutive days
# Method: Toxicities of Compound (I)
# Test on the toxicity by repetitive oral administration of the compounds, i.e., N-(3,4-dimethoxybenzyl)-2-(cis-4-hydroxycyclohexylamino)-5-nitrobenzamide and (R)-N-(3,4-dimethoxybenzyl)-2-(2-hydroxy-1-methylethylamino)-5-nitrobenzamide which were selected as representative compounds of this invention, in SD rat was conducted.
# [4] = tested on: Male beagle; assay: Duration of detumescence (T75) after cavernous nerve electrical stimulation in anesthetized beagle; type: in vivo; conditions: 0.1 mg/kg, i.v., cavernous nerve stimulation 7 Hz, 10 V, T75 = time from cessation of stimulation to 75% reduction of intracavernous pressure
# Method: (c) Male beagle weighing 8.0-12.0 kg were anesthetized with pentobarbital sodium (35 mg/kg, i.v.). After tracheotomy, the animal was artificially ventilated using a volume-cycled ventilator. The femoral artery was cannulated for continuous blood pressure and heart rate monitoring. The femoral vein was cannulated for maintenance of anesthesia and administration of tested compound.
# Either the left or right cavernous nerve was exposed posterolaterally to the prostate and a cuff electrode was placed around the nerve for electrical stimulation. A 21-gauge butterfly needle was placed in the corpus cavernousum and connected to a pressure transducer for intracavernous pressure. After a period of stabilization of all parameters, erection was induced by cavernous nerve electrically stimulation (7 Hz, 10 V) and the following was measured: the duration of detumescence (time (T75) from cessation of stimulation to 75% reduction of intracavernous pressure). The test compounds, i.e., N-(3,4-dimethoxybenzyl)-2-(cis-4-hydroxycyclohexylamino)-5-nitrobenzamide and (R)-N-(3,4-dimethoxybenzyl)-2-(2-hydroxy-1-methyl-ethylamino)-5-nitrobenzamide were each dissolved in 50% PEG400.
SMILES,Relaxant response elicited by 10 μM nitroprusside [1] [%],relaxation of corpora cavernosa elicited by electrical field stimulation (effect in words) [2],The dead (toxicity by repetitive oral administration) [3],mean of prolongation of T75 [4] [s]
"COc1ccc(CNC(=O)c2cc([N+](=O)[O-])ccc2N[C@H](C)CO)cc1OC [(R)-N-(3,4-Dimethoxybenzyl)-2-(2-hydroxy-(1-methylethylamino)-5-nitrobenzamide]",32,potentiated,could not be observed,44
"COc1ccc(CNC(=O)c2cc([N+](=O)[O-])ccc2N[C@H]2CC[C@@H](O)CC2)cc1OC [N-(3,4-Dimethoxybenzyl)-2-(cis-4-hydroxycyclohexylamino)-5-nitrobenzamide]",–,potentiated,could not be observed,52

# From US6384080B1, “Anthranilic acid derivatives as inhibitors of the cGMP-phosphodiesterase” (Fujisawa Pharmaceutical Co., Ltd., priority 1998, dated 2002)
